The values that follow come from patent publication US20110183969A1, “ANTIFUNGAL COMBINATION THERAPY” (priority 2008, published 2011).

Converted amounts (≈) assume the structure as drawn.

Holding throughout (assay): MIC (YAG medium)
Common to all, as to assay type: cell-based

The subject of one assay is Aspergillus flavus. The note with it: YAG medium, MIC banded into grades; for MIC: Aspergillus flavus, read-out: MIC A. flavus (grade). As to the method:
(§1) Between 1 and 5 mgs of compound were accurately weighed out into a sterile Eppendorf tube. The compound was dissolved in DMSO to give a solution containing 5 mg/mL. Tubes were stored at −20° C. until required.
(§2) On the day of testing thawed solutions were vortex mixed to ensure homogeneity. 30 μL of solution was removed and added to 570 μL of sterile water in a separate sterile Eppendorf The thoroughly mixed solution was used to prepare a series of doubling dilutions in water, in a deep well plate. […] replicate plates were prepared using a Minitrak by aspirating 20 μL from each well into eleven clear polystyrene 96 well plates.
(§3) Spores of Aspergillus spp. (Aspergillus fumigatus [two strains], Aspergillus terreus [two strains], Aspergillus niger and Aspergillus flavus) were harvested from cultures grown on Sabarauds agar for 5 days, and resuspended in PBS/Tween 80 to approx 1×10^7 cfu/mL. Other filamentous fungi (Absidia corymbifera, Fusarium solani, Rhizomucor, Scedosporium spp., Trichophyton spp.), were grown on Sabarauds agar for 2-10 days and spores/hyphae resuspended in PBS/Tween to give approx 1×10^7 cfu/mL. Candida species (Candida albicans, Candida glabrata, Candida krusei, Candida parapsilosis and Candida tropicalis) were grown on Sabarauds agar, cells were harvested from the agar using a sterile loop and resuspended in PBS/Tween 80 to approx 1×10^6 cfu/mL. Each organism suspension was diluted in RPMI medium, containing 2% glucose and 0.135 M MOPS buffer (pH 7.0) to 0.5−2×10^4 cfu/mL for Aspergillus spp. and other filamentous fungi and 0.5-2×10^3 cfu/mL for yeast. 80 μL of an organism suspension was added to each well of the plate containing drug dilutions.
(§4) This produced MIC plates with a drug range 50-0.05 mg/L and organism inocula of 1-2×10^4 cfu/mL for Aspergillus spp. and other filamentous fungi and 1-2×10^3 cfu/mL for yeasts. All plates were incubated for 24-48 hrs at 35° C. Growth was assessed by monitoring the optical density at 485 nm for each well. The MIC of a compound is the lowest drug concentration that inhibits growth of an organism by >80% compared with a drug free control. MICs are recorded as mg/L. Other growth media can be used for susceptibility testing, and the activity of the described compounds can also be assessed in a medium comprising 1% glucose, 1% ammonium chloride and 0.5% yeast extract (YAG medium). To perform MIC tests in this medium, dilutions of compounds are prepared in microtitre plates as described above. Fungal strains to be tested are grown and harvested in an identical manner to that described above, each organism suspension is then diluted in YAG medium to 0.5-2×10^4 cfu/mL for Aspergillus spp. and other filamentous fungi and 0.5-2×10^3 cfu/mL for yeast. 80 μL of an organism suspension was added to each well of the plate containing drug dilutions. This produced MIC plates with a drug range 50-0.05 mg/L and organism inocula of 1-2×10^4 cfu/mL for Aspergillus spp. and other filamentous fungi and 1-2×10^3 cfu/mL for yeasts. All plates were incubated for 24 hrs at 35° C. Growth was assessed by monitoring the optical density at 485 nm for each well. The MIC of a compound is the lowest drug concentration that inhibits growth of an organism by >70% compared with a drug free control. MICs are recorded as mg/L. In cases where the MIC of an organism is […] mg/L the MIC is repeated using a concentration range of 0.5-0.0005 mg/L. MIC tests in YAG medium have more clear-cut endpoints and have slightly lower MICs than those performed in RPMI medium.
(§5) The following organisms were tested: Absidia corymbifera, Aspergillus flavus, Aspergillus fumigatus AF293 and AF210, Aspergillus niger, Aspergillus terreus AT4 and AT49, Candida albicans, Candida glabrata, Candida krusei, Candida parapsilosis, Candida tropicalis, Fusarium solani, Rhizomucor sp., Scedosporium apiospermum, Scedosporium prolificans, Trichophyton mentagrophytes, and Trichophyton rubrum.

For assay [1], the system named is Aspergillus fumigatus AF210. The note with it: YAG medium, MIC banded into grades, AF210; for MIC: Aspergillus fumigatus, read-out: MIC A. fumigatus 210 (grade). The procedure:
as §1, §2, §3, §4, §5

Assay [2] relates to Aspergillus fumigatus AF293. The note with it: YAG medium, MIC banded into grades, AF293; for MIC: Aspergillus fumigatus, read-out: MIC A. fumigatus (grade). As to the method:
as §1, §2, §3, §4, §5

A further assay concerns Aspergillus niger. The note with it: YAG medium, MIC banded into grades; for MIC: Aspergillus niger, read-out: MIC A. niger (grade). As to the method: as §1, §2, §3, §4, §5
The test system of a further assay is Aspergillus terreus AT49. The note with it: YAG medium, MIC banded into grades, AT49; for MIC: Aspergillus terreus, read-out: MIC A. terreus 49 (grade). The procedure:
as §1, §2, §3, §4, §5

The test system of another assay is Aspergillus terreus AT4. The note with it: YAG medium, MIC banded into grades, AT4; for MIC: Aspergillus terreus, read-out: MIC A. terreus (grade). As to the method: as §1, §2, §3, §4, §5

Broadly, the MIC is the lowest concentration that inhibits growth of the organism.

As for `Cc1cc(C)nc(N2CCN(c3ccc(NC(=O)C(=O)c4c(C5CC5)cc5ccccn45)cc3)CC2)c1` [Example 58, 2-(2-Cyclopropyl-indolizin-3-yl)-N-{4-[4-(4,6-dimethyl-pyridin-2-yl)-piperazin-1-yl]-phenyl}-2-oxo-acetamide], the MIC (in the assay on Aspergillus flavus; in assay [1]; in assay [2]; in the assay on Aspergillus niger; with Aspergillus terreus AT49; in the assay with Aspergillus terreus AT4) was below 1 µg/mL throughout.
On to `COCCOc1cc(C)nc(N2CCN(c3ccc(NC(=O)C(=O)c4c(-c5ccccc5)cc5ccccn45)cc3)CC2)c1` [Example 57, N-(4-{4-[4-(2-Methoxy-ethoxy)-6-methyl-pyridin-2-yl]-piperazin-1-yl}-phenyl)-2-oxo-2-(2-phenyl-indolizin-3-yl)-acetamide], for which the minimal inhibitory concentration (MIC) (in the assay with Aspergillus flavus; in assay [1]; in assay [2]; in the assay on Aspergillus niger; in the assay with Aspergillus terreus AT49; with Aspergillus terreus AT4) was below 1 µg/mL each time.
Regarding `COCCOCCOc1cc(C)nc(N2CCN(c3ccc(NC(=O)C(=O)c4c(-c5ccccc5)cc5ccccn45)cc3)CC2)c1` [Example 76, N-[4-(4-{4-[2-(2-methoxy-ethoxy)-ethoxy]-6-methyl-pyridin-2-yl}-piperazin-1-yl)-phenyl]-2-oxo-2-(2-phenyl-indolizin-3-yl)-acetamide], the MIC (in the assay with Aspergillus flavus; in assay [1]; in assay [2]; with Aspergillus niger; in the assay on Aspergillus terreus AT49; with Aspergillus terreus AT4) was below 1 µg/mL each time.
In the case of `O=C(Nc1ccc(N2CCN(S(=O)(=O)c3cccnc3)CC2)cc1)C(=O)c1c(-c2ccccc2)cc2ccccn12` [Example 51, 2-Oxo-2-(2-phenyl-indolizin-3-yl)-N-{4-[4-(pyridine-3-sulfonyl)-piperazin-1-yl]-phenyl}-acetamide], the MIC (with Aspergillus flavus; in assay [1]; in assay [2]; with Aspergillus niger; in the assay on Aspergillus terreus AT49; in the assay with Aspergillus terreus AT4) was below 1 µg/mL in each case.
Take `Cc1cc(C)nc(N2CCN(c3ccc(NC(=O)C(=O)c4c(-c5ccccc5)cc5ccc(F)cn45)cc3)CC2)c1` [Example 32, N-{4-[4-(4,6-Dimethyl-pyridin-2-yl)-piperazin-1-yl]-phenyl}-2-(6-fluoro-2-phenyl-indolizin-3-yl)-2-oxo-acetamide]: the MIC (in the assay with Aspergillus flavus; in assay [1]; in assay [2]; in the assay with Aspergillus niger; with Aspergillus terreus AT49; in the assay with Aspergillus terreus AT4) was below 1 µg/mL in each case.
Turning to `Cc1cc(C)nc(N2CCN(c3ccc(NC(=O)C(=O)c4c(C5CCCC5)cc5ccccn45)cc3)CC2)c1` [Example 47, 2-(2-Cyclopentyl-indolizin-3-yl)-N-{4-[4-(4,6-dimethyl-pyridin-2-yl)-piperazin-1-yl]-phenyl}-2-oxo-acetamide], the MIC (in the assay on Aspergillus flavus; in assay [1]; in assay [2]; in the assay with Aspergillus niger; in the assay on Aspergillus terreus AT49; in the assay on Aspergillus terreus AT4) was below 1 µg/mL throughout.
In the case of `O=C(Nc1ccc(N2CCN(c3ccccn3)CC2)cc1)C(=O)c1c(-c2ccccc2)cc2ccccn12` [Example 41, 2-Oxo-2-(2-phenyl-indolizin-3yl)-N-[4-(4-pyridin-2-yl-piperizin-1-yl)-phenyl]-acetamide], the “MIC A. flavus (grade)” value against Aspergillus flavus was 3 (A grade of 3 represents an MIC of less than 1 mg/L). Also, the “MIC A. fumigatus 210 (grade)” value in assay [1] is 3 (A grade of 3 represents an MIC of less than 1 mg/L). In addition, the “MIC A. fumigatus (grade)” value in assay [2] is reported as 3 (A grade of 3 represents an MIC of less than 1 mg/L). Besides, in the assay with Aspergillus niger, the “MIC A. niger (grade)” value is listed as 3 (A grade of 3 represents an MIC of less than 1 mg/L). Further, the “MIC A. terreus 49 (grade)” value against Aspergillus terreus AT49 is listed as 3 (A grade of 3 represents an MIC of less than 1 mg/L). The “MIC A. terreus (grade)” value in the assay with Aspergillus terreus AT4 was 3 (A grade of 3 represents an MIC of less than 1 mg/L).
For `Cc1cc(C)nc(N2CCN(c3ccc(NC(=O)C(=O)c4c(-c5ccccc5)cc5ccccn45)cc3C(=O)O)CC2)c1` [Example 84, 2-[4-(4,6-Dimethyl-pyridin-2-yl)-piperazin-1-yl]-5-[2-oxo-2-(2-phenyl-indolizin-3-yl)-acetylamino]-benzoic acid], the MIC was below 1 µg/mL with Aspergillus flavus; 1 to 10 µg/mL (≈ 1.74 to 17.4 µM) in assay [1]; below 1 µg/mL in assay [2]; 1 to 10 µg/mL (≈ 1.74 to 17.4 µM) in the assay on Aspergillus niger; 1 to 10 µg/mL (≈ 1.74 to 17.4 µM) in the assay on Aspergillus terreus AT49; 1 to 10 µg/mL (≈ 1.74 to 17.4 µM) in the assay on Aspergillus terreus AT4.
With `O=C(Nc1ccc(N2CCN(Cc3cccs3)CC2)cc1)C(=O)c1c(-c2ccccc2)cc2ccccn12` [Example 33, 2-Oxo-2-(2-phenylindolizin-3-yl)-N-[4-(4-thiophen-2-ylmethylpiperazin-1-yl)phenyl] acetamide], the “MIC A. flavus (grade)” value in the assay on Aspergillus flavus is reported as 3 (A grade of 3 represents an MIC of less than 1 mg/L). Moreover, in assay [1], the “MIC A. fumigatus 210 (grade)” value is on record as 3 (A grade of 3 represents an MIC of less than 1 mg/L). In assay [2], the “MIC A. fumigatus (grade)” value was 3 (A grade of 3 represents an MIC of less than 1 mg/L). Moreover, the “MIC A. niger (grade)” value with Aspergillus niger was 3 (A grade of 3 represents an MIC of less than 1 mg/L). The “MIC A. terreus 49 (grade)” value in the assay on Aspergillus terreus AT49 was 3 (A grade of 3 represents an MIC of less than 1 mg/L). The “MIC A. terreus (grade)” value against Aspergillus terreus AT4 is recorded as 3 (A grade of 3 represents an MIC of less than 1 mg/L).
`CCc1ccnc(N2CCN(c3ccc(NC(=O)C(=O)c4c(-c5ccccc5)cc5ccccn45)cc3)CC2)c1` [Example 75, N-{4-[4-(4-ethyl-pyridin-2-yl)-piperazin-1-yl]-phenyl}-2-oxo-2-(2-phenyl-indolizin-3-yl)-acetamide]: the MIC (with Aspergillus flavus; in assay [1]; in assay [2]; in the assay on Aspergillus niger; with Aspergillus terreus AT49; in the assay on Aspergillus terreus AT4) was below 1 µg/mL throughout.
Take `Cc1cc(OCCOc2ccc(NC(=O)C(=O)c3c(-c4ccccc4)cc4ccccn34)cc2)cc(C)n1` [Example 71, N-{4-[2-(2,6-Dimethyl-pyridin-4-yloxy)-ethoxy]-phenyl}-2-oxo-2-(2-phenyl-indolizin-3-yl)-acetamide]: the minimum inhibitory concentration (MIC) was 1 to 10 µg/mL (≈ 1.98 to 19.8 µM) in the assay with Aspergillus flavus; below 1 µg/mL in assay [1]; below 1 µg/mL in assay [2]; 1 to 10 µg/mL (≈ 1.98 to 19.8 µM) in the assay on Aspergillus niger; below 1 µg/mL in the assay on Aspergillus terreus AT49; below 1 µg/mL in the assay with Aspergillus terreus AT4.
Regarding `O=C(Nc1ccc(N2CCS(=O)(=O)CC2)cc1)C(=O)c1c(-c2ccccc2)cc2ccccn12` [Example 1, N-[4-(1,1-Dioxo-1λ^6-thiomorpholin-4-yl)-phenyl]-2-oxo-2-(2-phenyl-indolizin-3-yl)-acetamide], the minimum inhibitory concentration (MIC) with Aspergillus flavus was 1 to 10 µg/mL (≈ 2.11 to 21.1 µM); in assay [1], above 10 µg/mL; in assay [2], above 10 µg/mL; with Aspergillus niger it was above 10 µg/mL; in the assay on Aspergillus terreus AT49, above 10 µg/mL; with Aspergillus terreus AT4, 1 to 10 µg/mL (≈ 2.11 to 21.1 µM).
